Measurements as given in patent US8343964B2, “Indolic derivatives, their preparation processes and their uses in particular as antibacterials” (Universite Joseph Fourier, priority 2007, dated 2013).
Values after ≈ are worked out from the molar mass of the structure shown. Read-outs that look alike come from different tables or passages of the source.

Tests used:
[1] = test system: Staphylococcus aureus (ATCC 25923, sensitive Gram-positive strain); assay: Determination of the antibacterial activity: MIC in liquid Mueller-Hinton medium (intrinsic antibacterial activity); type: cell-based; details: read-out: MIC / Antibacterial Activity (AA)
Method: (§1) The two strains used are Staphylococcus aureus (ATCC 25923, sensitive Gram-positive strain) denoted S, and S. aureus ITS-1199 (without efflux), as well as its derivative S. aureus ITS-1199B (Kaatz, G. W., Seo, S. M., Antimicrob. Agents Chemother., 1995, 39, 2650-2655) having a resistance to the fluoroquinolones due to the overexpression of the efflux pump NorA and denoted R NorA. The bacteria are cultured at 37° C. in Mueller-Hinton (MH, Bio Rad) or Luria-Bertani (LB, Difco) Medium.
The experiments described hereafter are carried out following the recommendations of the Comité de l'Antibiogramme de la Société Française de Microbiologic (http://www.sfm.asso.fr/nouv/general.php See also Courvalin, P., Goldstein, F., Philippon, A., Sirot J. L'antibiogramme, 1985, M.P.C.-Videom editor). The antibacterial activity of the molecules was determined in liquid medium using a Biomek 2000 robot (Beckman) and micro-titration plates. The final volume in each well is 200 μl. A maximum volume of 5 μl of a solution of the molecule in DMSO is added to each well containing 10^6 CFU/ml (Colony Forming Units) of bacteria in MH medium. The final concentration of the molecule to be tested must be 100 or 128 μg/ml. […] Ampicillin is used as a positive control and the same volume of DMSO as that used to introduce the molecule (generally 2 to 5 μl) as a negative control.
The experiments are repeated three times.

[2] = test system: KB (human mouth carcinoma); assay: In vitro cytotoxicity on KB cells; type: cell-based; details: concentration of 10^−5 M
Method: (§2) The in vitro cytotoxicity results, measured at a concentration of 10^−5 M, are described below. The cytotoxicity was measured on 5 cell lines—KB (human mouth carcinoma), MCF7 (breast carcinoma) and MCF7R (resistant strain), Vero (monkey kidney) and HCT116 (human colon tumour).

[3] = In vitro cytotoxicity on Vero cells; type: cell-based; details: monkey, Vero cells (monkey kidney); concentration of 10^−5 M; read-out: Average cytotoxicity (% inhibition), Vero cells
Method: as §2

[4] = In vitro cytotoxicity on HCT116 cells; type: cell-based; details: human, HCT116 cells (human colon tumour); concentration of 10^−5 M; read-out: Average cytotoxicity (% inhibition), HCT116 cells
Method: as §2

[5] = test system: S. aureus ITS-1199B (overexpression of the efflux pump NorA); type: cell-based, Staphylococcus aureus; details: resistant strain R NorA; for MIC (μg/ml) of compound in the presence of ciprofloxacin at 4 μg/ml (c/4): ciprofloxacin 4 μg/ml (c/4); for MIC (μg/ml) of compound in the presence of ciprofloxacin at 8 μg/ml (c/2): ciprofloxacin 8 μg/ml (c/2)
Method: as §1
The experiences are carried out as above, but using the resistant strain, and looking at the effect of the mixture of the molecule to be tested and the antibiotic to which the bacterium is resistant. Thus, the method of a series of dilutions in Mueller-Hinton medium is used, also starting from a molecule concentration of 100 or 128 μg/ml.

[6] = In vitro cytotoxicity on MCF7 cells; type: cell-based; details: human, MCF7 cells (breast carcinoma); concentration of 10^−5 M; read-out: Average cytotoxicity (% inhibition), MCF7 cells
Method: as §2

[7] = in vitro; type: cell-based; details: human
Method: as §2

[8] = ATCC25923, compound alone, lowest concentration allowing no growth after 18 hours at 37° C., 10^6 CFU/ml

SMILES	MIC ([1]; ATCC25923, 18 h) [µg/mL]	Average cytotoxicity (% inhibition), KB cells [2] [%]	cytotoxicity [3] [%]	MIC (μg/ml) of compound in the presence of ciprofloxacin at 4 μg/ml (c/4) [5]	further results
O=[N+]([O-])c1ccc(C(c2c[nH]c3ccccc23)N(O)Cc2ccccc2)cc1 (centres unmarked) [(42)]	50 (≈ 134 µM)	–	–	–	–
CC(c1c[nH]c2ccc(Br)cc12)/[N+]([O-])=C\c1ccccc1 (centres unmarked) [(43)]	100 (≈ 291 µM)	–	–	–	–
CC(C)(C)OC(=O)NCC(NO)c1c[nH]c2ccccc12 (centres unmarked) [(46), 1-N-(hydroxy)amino-2-[N′-(tert-butoxycarbonyl)amino]-1-(indol-3′-yl)ethane]	–	31	0	–	cytotoxicity [4]: 39%
CC(c1c[nH]c2ccc(Br)cc12)N(O)Cc1ccccc1 (centres unmarked) [Compound (1)]	–	50	36	–	MIC [1, 8]: 25 µg/mL (≈ 72.4 µM); cytotoxicity [4]: 28%
CC(c1c[nH]c2cc(Br)ccc12)N(O)Cc1ccccc1 (centres unmarked) [Compound (2)]	100 (≈ 290 µM)	–	–	–	–
COc1ccc(CN(O)C(C)c2c[nH]c3ccc(Br)cc23)cc1 (centres unmarked) [Compound (3)]	100 (≈ 266 µM)	–	–	–	–
CC(C)(C)OC(=O)NCC(c1c[nH]c2ccc(Br)cc12)N(O)Cc1ccccc1 (centres unmarked) [Compound (4)]	25 (≈ 54.3 µM)	–	–	–	–
CC(C)(C)OC(=O)NCC(c1c[nH]c2cc(Br)ccc12)N(O)Cc1ccccc1 (centres unmarked) [Compound (5)]	–	–	–	2 µg/mL	MIC [1, 8]: 6 µg/mL (≈ 13 µM)
CC(C)(C)OC(=O)NCC(c1c[nH]c2ccccc12)N(O)Cc1ccccc1 (centres unmarked) [Compound (6)]	–	33.7	27	4 µg/mL	MIC (μg/ml) of compound in the presence of ciprofloxacin at 8 μg/ml (c/2) [5]: 2 µg/mL; cytotoxicity [6]: 13.1%; cytotoxicity [7]: 16%; cytotoxicity [4]: 29%
COc1ccc2[nH]cc(C(CNC(=O)OC(C)(C)C)N(O)Cc3ccccc3)c2c1 (centres unmarked) [Compound (7)]	–	15.6	8	–	cytotoxicity [6]: 9.7%; cytotoxicity [7]: 10.1%; cytotoxicity [4]: 10%
COc1ccc(CN(O)C(CNC(=O)OC(C)(C)C)c2c[nH]c3ccc(Br)cc23)c(OC)c1 (centres unmarked) [Compound (8)]	–	–	–	8 µg/mL	MIC (μg/ml) of compound in the presence of ciprofloxacin at 8 μg/ml (c/2) [5]: 8 µg/mL
CC(C)(C)OC(=O)NCC(c1c[nH]c2ccccc12)N(O)C(=O)OC(C)(C)C (centres unmarked) [Compound (11)]	–	14	15	–	cytotoxicity [4]: 22%
CC(C)(C)OC(=O)NCC(c1c[nH]c2ccc(Cl)cc12)N(O)C(=O)OC(C)(C)C (centres unmarked) [Compound (12)]	–	–	–	4 µg/mL	MIC [1, 8]: 12.5 µg/mL (≈ 29.3 µM)
CC(C)(C)OC(=O)NCC(c1c[nH]c2ccc(Br)cc12)N(O)C(=O)OC(C)(C)C (centres unmarked) [Compound (13), 1-[N-(tert-butoxycarbonyl)-N-(hydroxy)amino]-2-[N-(tert-butoxycarbonyl)]-1-(5′-bromo-3′-indolyl)ethane]	50 (≈ 106 µM)	–	–	–	–
CC(NCc1ccccc1)c1c[nH]c2ccc(Br)cc12 (centres unmarked) [Compound (15)]	25 (≈ 75.9 µM)	–	–	–	–
CC(C)(C)OC(=O)NCC(c1c[nH]c2ccc(Br)cc12)/[N+]([O-])=C/c1ccccc1 (centres unmarked) [Compound (20 bis), N-(benzylidene)-2-[N′-(tert-butoxycarbonyl)amino]-1-(5′-bromo-3′-indolyl) ethanamine N-oxide]	–	38.3	–	c/2 = 1 c/4 = 1 μg/ml	MIC (μg/ml) of compound in the presence of ciprofloxacin at 8 μg/ml (c/2) [5]: c/2 = 1 c/4 = 1 μg/ml; cytotoxicity [6]: 23.3%; cytotoxicity [7]: 38.1%
CC(C)CC(c1c[nH]c2ccccc12)N(O)C(=O)OC(C)(C)C (centres unmarked) [Compound (47)]	–	–	–	32 µg/mL	MIC [1, 8]: 64 µg/mL (≈ 201 µM)
O=C(CONC(=O)OCC1c2ccccc2-c2ccccc21)NC(COCc1ccccc1)c1c[nH]c2ccccc12 (centres unmarked) [Compound (48)]	–	–	–	2 µg/mL	–
COc1ccc2c(C(CNC(=O)OC(C)(C)C)N(O)Cc3ccccc3)c[nH]c2c1 (centres unmarked) [Compound (50), 1-[N-benzyl-N-(hydroxy)amino]-2-[N′-(tert-butoxycarbonyl)amino]-1-(6′-methoxyindol-3′-yl)ethane]	–	–	42	–	–
